Experimental data published in the supplement of paper PMC10883282.
± gives the standard deviation of the averaged measurements.

Assays:
Experiment in all cases: relative viability vs DMSO control (72 h) (fraction); higher = more viable cells
A204 = tested on: A204
Outline: (§1)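 Percent growth from ATPLite readings, averaged over up to triplicate wells, was used as relative viability. Sarcoma cell lines were seeded into 384-well plates for 80–90% confluence, dosed after 24 h, and kept 72 h at 37 °C, 5% CO2. Data were rescaled to a range where 1 is full and 0 is none.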

G401 = tested on: G401
Outline: as §1

HS729 = tested on: HS729
Outline: as §1

HT1080 = tested on: HT1080
Outline: as §1

KHOS-NP = tested on: KHOS-NP
Outline: as §1

MES-SA = tested on: MES-SA
Outline: as §1

SK-LMS-1 = tested on: SK-LMS-1
Outline: as §1

SW1353 = tested on: SW1353
Outline: as §1

SW684 = tested on: SW684
Outline: as §1

SW872 = tested on: SW872
Outline: as §1

SYO-1 = tested on: SYO-1
Outline: as §1

VA-ES-BJ = tested on: VA-ES-BJ
Outline: as §1

## Cc1cc2c(F)c(Oc3ncnn4cc(OC[C@@H](C)O)c(C)c34)ccc2[nH]1 [Brivanib]
A204; 0.00017 µM
  relative viability: 1.05 ± 0.027
A204; 0.00051 µM
  relative viability: 1.035 ± 0.0059
A204; 0.00152 µM
  relative viability: 1.02 ± 0.028
A204; 0.00457 µM
  relative viability: 1.07 ± 0.072
A204; 0.01372 µM
  relative viability: 1.06 ± 0.072
A204; 0.04115 µM
  relative viability: 1.03 ± 0.068
A204; 0.1235 µM
  relative viability: 1.01 ± 0.032
A204; 0.3704 µM
  relative viability: 1.01 ± 0.029
A204; 1.111 µM
  relative viability: 0.987 ± 0.011
A204; 3.333 µM
  relative viability: 0.95 ± 0.067
A204; 10 µM
  relative viability: 0.642 ± 0.014
G401; 0.00017 µM
  relative viability: 0.939 ± 0.045
G401; 0.00051 µM
  relative viability: 0.989 ± 0.036
G401; 0.00152 µM
  relative viability: 0.965 ± 0.039
G401; 0.00457 µM
  relative viability: 0.921 ± 0.015
G401; 0.01372 µM
  relative viability: 0.969 ± 0.058
G401; 0.04115 µM
  relative viability: 0.979 ± 0.075
G401; 0.1235 µM
  relative viability: 0.964 ± 0.036
G401; 0.3704 µM
  relative viability: 0.99 ± 0.034
G401; 1.111 µM
  relative viability: 0.979 ± 0.021
G401; 3.333 µM
  relative viability: 0.955 ± 0.0057
G401; 10 µM
  relative viability: 0.922 ± 0.033
HS729; 0.00017 µM
  relative viability: 0.93 ± 0.036
HS729; 0.00051 µM
  relative viability: 0.949 ± 0.038
HS729; 0.00152 µM
  relative viability: 0.955 ± 0.048
HS729; 0.00457 µM
  relative viability: 0.943 ± 0.038
HS729; 0.01372 µM
  relative viability: 0.929 ± 0.047
HS729; 0.04115 µM
  relative viability: 0.912 ± 0.038
HS729; 0.1235 µM
  relative viability: 0.925 ± 0.026
HS729; 0.3704 µM
  relative viability: 0.964 ± 0.023
HS729; 1.111 µM
  relative viability: 0.963 ± 0.071
HS729; 3.333 µM
  relative viability: 0.921 ± 0.021
HS729; 10 µM
  relative viability: 0.856 ± 0.055
HT1080; 0.00017 µM
  relative viability: 1.04 ± 0.013
HT1080; 0.00051 µM
  relative viability: 1.026 ± 0.0022
HT1080; 0.00152 µM
  relative viability: 1.05 ± 0.018
HT1080; 0.00457 µM
  relative viability: 1.06 ± 0.018
HT1080; 0.01372 µM
  relative viability: 1.07 ± 0.063
HT1080; 0.04115 µM
  relative viability: 1.02 ± 0.018
HT1080; 0.1235 µM
  relative viability: 1.02 ± 0.0094
HT1080; 0.3704 µM
  relative viability: 1.06 ± 0.067
HT1080; 1.111 µM
  relative viability: 1.05 ± 0.033
HT1080; 3.333 µM
  relative viability: 1.07 ± 0.039
HT1080; 10 µM
  relative viability: 1.01 ± 0.025
KHOS-NP; 0.00017 µM
  relative viability: 1.04 ± 0.011
KHOS-NP; 0.00051 µM
  relative viability: 1.05 ± 0.017
KHOS-NP; 0.00152 µM
  relative viability: 1.05 ± 0.027
KHOS-NP; 0.00457 µM
  relative viability: 1.04 ± 0.018
KHOS-NP; 0.01372 µM
  relative viability: 1.06 ± 0.014
KHOS-NP; 0.04115 µM
  relative viability: 1.058 ± 0.0053
KHOS-NP; 0.1235 µM
  relative viability: 1.06 ± 0.012
KHOS-NP; 0.3704 µM
  relative viability: 1.07 ± 0.033
KHOS-NP; 1.111 µM
  relative viability: 1.05 ± 0.021
KHOS-NP; 3.333 µM
  relative viability: 1.07 ± 0.033
KHOS-NP; 10 µM
  relative viability: 0.964 ± 0.035
MES-SA; 0.00017 µM
  relative viability: 0.897 ± 0.043
MES-SA; 0.00051 µM
  relative viability: 0.908 ± 0.026
MES-SA; 0.00152 µM
  relative viability: 0.8964 ± 0.008
MES-SA; 0.00457 µM
  relative viability: 0.892 ± 0.021
MES-SA; 0.01372 µM
  relative viability: 0.919 ± 0.02
MES-SA; 0.04115 µM
  relative viability: 0.917 ± 0.025
MES-SA; 0.1235 µM
  relative viability: 0.921 ± 0.029
MES-SA; 0.3704 µM
  relative viability: 0.935 ± 0.017
MES-SA; 1.111 µM
  relative viability: 0.934 ± 0.014
MES-SA; 3.333 µM
  relative viability: 0.926 ± 0.031
MES-SA; 10 µM
  relative viability: 0.636 ± 0.018
SK-LMS-1; 0.00017 µM
  relative viability: 1.03 ± 0.035
SK-LMS-1; 0.00051 µM
  relative viability: 1.03 ± 0.022
SK-LMS-1; 0.00152 µM
  relative viability: 1.02 ± 0.046
SK-LMS-1; 0.00457 µM
  relative viability: 1.03 ± 0.047
SK-LMS-1; 0.01372 µM
  relative viability: 1.02 ± 0.034
SK-LMS-1; 0.04115 µM
  relative viability: 1.03 ± 0.011
SK-LMS-1; 0.1235 µM
  relative viability: 1.06 ± 0.027
SK-LMS-1; 0.3704 µM
  relative viability: 1.02 ± 0.016
SK-LMS-1; 1.111 µM
  relative viability: 1.04 ± 0.034
SK-LMS-1; 3.333 µM
  relative viability: 1.03 ± 0.08
SK-LMS-1; 10 µM
  relative viability: 0.687 ± 0.018
SW1353; 0.00017 µM
  relative viability: 0.963 ± 0.04
SW1353; 0.00051 µM
  relative viability: 0.991 ± 0.012
SW1353; 0.00152 µM
  relative viability: 0.952 ± 0.029
SW1353; 0.00457 µM
  relative viability: 0.96 ± 0.03
SW1353; 0.01372 µM
  relative viability: 0.976 ± 0.029
SW1353; 0.04115 µM
  relative viability: 0.935 ± 0.025
SW1353; 0.1235 µM
  relative viability: 0.944 ± 0.02
SW1353; 0.3704 µM
  relative viability: 1.01 ± 0.041
SW1353; 1.111 µM
  relative viability: 0.982 ± 0.035
SW1353; 3.333 µM
  relative viability: 1 ± 0.019
SW1353; 10 µM
  relative viability: 0.997 ± 0.046
SW684; 0.00017 µM
  relative viability: 1.1 ± 0.037
SW684; 0.00051 µM
  relative viability: 1.11 ± 0.025
SW684; 0.00152 µM
  relative viability: 1.12 ± 0.026
SW684; 0.00457 µM
  relative viability: 1.13 ± 0.055
SW684; 0.01372 µM
  relative viability: 1.146 ± 0.003
SW684; 0.04115 µM
  relative viability: 1.15 ± 0.034
SW684; 0.1235 µM
  relative viability: 1.12 ± 0.034
SW684; 0.3704 µM
  relative viability: 1.15 ± 0.025
SW684; 1.111 µM
  relative viability: 1.12 ± 0.033
SW684; 3.333 µM
  relative viability: 1.16 ± 0.056
SW684; 10 µM
  relative viability: 1.21 ± 0.024
SW872; 0.00017 µM
  relative viability: 0.989 ± 0.024
SW872; 0.00051 µM
  relative viability: 0.999 ± 0.02
SW872; 0.00152 µM
  relative viability: 0.996 ± 0.042
SW872; 0.00457 µM
  relative viability: 1.04 ± 0.022
SW872; 0.01372 µM
  relative viability: 1.009 ± 0.0077
SW872; 0.04115 µM
  relative viability: 1 ± 0.024
SW872; 0.1235 µM
  relative viability: 1.03 ± 0.031
SW872; 0.3704 µM
  relative viability: 1.05 ± 0.019
SW872; 1.111 µM
  relative viability: 1.06 ± 0.019
SW872; 3.333 µM
  relative viability: 1.056 ± 0.0084
SW872; 10 µM
  relative viability: 1.02 ± 0.02
SYO-1; 0.00017 µM
  relative viability: 0.941 ± 0.014
SYO-1; 0.00051 µM
  relative viability: 0.936 ± 0.01
SYO-1; 0.00152 µM
  relative viability: 0.931 ± 0.017
SYO-1; 0.00457 µM
  relative viability: 0.935 ± 0.011
SYO-1; 0.01372 µM
  relative viability: 0.919 ± 0.011
SYO-1; 0.04115 µM
  relative viability: 0.925 ± 0.029
SYO-1; 0.1235 µM
  relative viability: 0.921 ± 0.025
SYO-1; 0.3704 µM
  relative viability: 0.906 ± 0.053
SYO-1; 1.111 µM
  relative viability: 0.861 ± 0.05
SYO-1; 3.333 µM
  relative viability: 0.792 ± 0.049
SYO-1; 10 µM
  relative viability: 0.609 ± 0.036
VA-ES-BJ; 0.00017 µM
  relative viability: 1.01 ± 0.022
VA-ES-BJ; 0.00051 µM
  relative viability: 1.03 ± 0.043
VA-ES-BJ; 0.00152 µM
  relative viability: 1 ± 0.013
VA-ES-BJ; 0.00457 µM
  relative viability: 0.996 ± 0.045
VA-ES-BJ; 0.01372 µM
  relative viability: 0.96 ± 0.06
VA-ES-BJ; 0.04115 µM
  relative viability: 1 ± 0.015
VA-ES-BJ; 0.1235 µM
  relative viability: 1.011 ± 0.0041
VA-ES-BJ; 0.3704 µM
  relative viability: 1.03 ± 0.035
VA-ES-BJ; 1.111 µM
  relative viability: 1.06 ± 0.051
VA-ES-BJ; 3.333 µM
  relative viability: 1.07 ± 0.054
VA-ES-BJ; 10 µM
  relative viability: 1.07 ± 0.068
